Experimental data taken from publication PMC5775429, “LY2087101 and dFBr share transmembrane binding sites in the (α4)3(β2)2 Nicotinic Acetylcholine Receptor” (Scientific Reports, 2018).
Values joined by “and” are separate entries in the source; they are usually repeats but may differ in a detail not shown here. Identical values can stand only once. Like-named read-outs stand apart in the source and are kept apart here. Marks after values point to notes of the source that are not given here.

Assays:
[1] = target: (α4T152I)3(β2)2 nAChR (Homo sapiens, UniProt P43681, T152I); design: method as in PMID 28446611; settings: 10 µM ACh + 1 µM dFBr vs 10 µM ACh alone; data reported previously ref 29; cited from earlier work
[2] = target: T1, (α4)2(β2)3 nAChR (Homo sapiens, UniProt P17787+P43681); settings: cited from earlier work
T1 construct: expressed in transfected cells; host or cells: Xenopus laevis oocytes injected with cRNA

[3] = target: T2, α3β4 nAChR (Homo sapiens, UniProt P30926+P32297); experiment: Two-electrode voltage-clamp of ACh-induced currents in Xenopus oocytes; format: cell-based; settings: 1 μM PAM
T2 construct: expressed in transfected cells; host or cells: Xenopus laevis oocytes injected with cRNA
Protocol: Next, Xenopus oocytes were injected with RNA mixes of […], α3:β4, […], or α4:β4 at ratios of 8:1, 1:1, or 1:8 to express nAChRs with different subunit composition and with various α:β ratios.
(§1) Ovarian lobules were surgically harvested from oocytes-positive female Xenopus laevis (NASCO, Fort Atkinson, WI) according to an animal use protocol approved by the Texas A&M Health Sciences Center Institutional Animals Care and Use Committee. The Texas A&M Health Sciences Center Research Facility is registered as an animal research facility with the United States Department of Agriculture and is fully accredited by the American Association for Accreditation of Laboratory Animal Care (AAALAC). For oocytes defolliculation, ovarian lobes were treated with 3 mg/ml collagenase type 2 (Worthington Biomedical, Lakewood, NJ) in Ca + 2-free buffer (85 mM NaCl, 2.5 mM KCl, 1 mM MgCl2, 5 mM HEPES, pH 7.6). Collagenase treatment was allowed to proceed for 3 hours at room temperature with gentle shaking then oocytes were washed several times with buffer to remove collagenase then with ND96-gentamicine buffer. Healthy Stage V and VI oocytes were visually selected and maintained at 18 °C in modified ND96-gentamicine buffer (96 mM NaCl, 2 mM KCl, 1.8 mM CaCl2, 1 mM MgCl2, 5 mM HEPES, 50 µg/ml gentamicin, pH 7.6). Oocytes were injected with 50–100 ng of the desired nAChR subunits cRNA mix at ratios of 8α:1β or 1α:8β to express nAChRs with subunit stoichiometries of 3α:2β (low agonist sensitivity) or 2α:3β (high agonist sensitivity), respectively.
(§2) Oocytes were continuously perfused with recording buffer (100 mM NaCl, 2 mM KCl, 1 mM CaCl2, 0.8 mM MgCl2, 1 mM EGTA, 10 mM Hepes, pH 7.5) except during periods of drug applications.

[4] = target: T3, α3β2 nAChR (Homo sapiens, UniProt P17787+P32297); experiment: as above; format: cell-based; settings: 1 μM PAM
T3 construct: expressed in transfected cells; host or cells: Xenopus laevis oocytes injected with cRNA

[5] = target: (α4H94N)3(β2)2 nAChR (Homo sapiens, UniProt P43681, H94N); design: method as in PMID 28446611; settings: 10 µM ACh + 1 µM dFBr vs 10 µM ACh alone; data reported previously ref 29; cited from earlier work
[6] = system: non-induced compulsive-like mouse model; design: method as in PMID 23712602, PMID 28446611, PMID 28809075, PMID 28105008; settings: cited from earlier work
[7] = target: T1, (α4)2(β2)3 nAChR; experiment: Two-electrode voltage-clamp of ACh-induced currents in Xenopus oocytes; format: cell-based
Protocol: To begin to characterize LY2087101 interaction with the heteropentameric α4β2 nAChRs, we examined the selectivity of LY2087101 for the two α4β2 nAChR isoforms; high-agonist sensitivity (α4)2(β2)3 and low-agonist sensitivity (α4)3(β2)2 nAChRs. Xenopus oocytes were injected with α4 and β2 subunits RNAs at ratios 8:1 and 1:8 to favor expression of (α4)3(β2)2 and (α4)2(β2)3 nAChRs, respectively.
as §1, §2

T1 sequence (P43681 29-627 limits assumed): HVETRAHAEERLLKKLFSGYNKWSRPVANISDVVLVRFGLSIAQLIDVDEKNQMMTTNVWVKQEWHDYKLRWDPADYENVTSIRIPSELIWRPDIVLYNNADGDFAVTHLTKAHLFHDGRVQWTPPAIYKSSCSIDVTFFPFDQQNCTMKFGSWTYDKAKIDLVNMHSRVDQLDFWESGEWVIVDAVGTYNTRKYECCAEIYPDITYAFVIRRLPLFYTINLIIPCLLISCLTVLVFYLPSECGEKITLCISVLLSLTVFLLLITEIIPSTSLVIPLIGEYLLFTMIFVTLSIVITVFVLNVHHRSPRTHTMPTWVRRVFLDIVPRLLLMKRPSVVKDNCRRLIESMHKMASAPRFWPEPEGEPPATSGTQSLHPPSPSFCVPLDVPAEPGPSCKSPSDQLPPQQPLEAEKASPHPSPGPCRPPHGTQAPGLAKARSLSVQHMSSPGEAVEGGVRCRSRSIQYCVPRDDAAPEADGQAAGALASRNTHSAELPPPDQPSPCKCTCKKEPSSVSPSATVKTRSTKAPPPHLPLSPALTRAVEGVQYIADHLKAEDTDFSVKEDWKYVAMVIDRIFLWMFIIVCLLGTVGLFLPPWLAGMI
T1 sequence (P17787 26-502): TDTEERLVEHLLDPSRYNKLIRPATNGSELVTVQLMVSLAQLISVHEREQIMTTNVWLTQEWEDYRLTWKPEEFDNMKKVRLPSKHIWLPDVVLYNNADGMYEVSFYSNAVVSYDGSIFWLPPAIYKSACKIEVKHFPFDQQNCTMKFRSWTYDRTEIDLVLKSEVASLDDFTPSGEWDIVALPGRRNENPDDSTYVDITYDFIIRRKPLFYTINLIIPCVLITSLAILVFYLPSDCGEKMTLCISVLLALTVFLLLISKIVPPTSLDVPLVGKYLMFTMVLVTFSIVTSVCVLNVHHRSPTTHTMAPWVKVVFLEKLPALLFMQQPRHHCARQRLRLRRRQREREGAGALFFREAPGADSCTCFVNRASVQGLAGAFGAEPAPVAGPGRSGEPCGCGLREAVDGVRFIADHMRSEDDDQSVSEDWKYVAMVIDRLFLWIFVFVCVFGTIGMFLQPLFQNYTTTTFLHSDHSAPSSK
Chain of (α4T152I)3(β2)2 nAChR (P43681 29-627 T152I limits assumed): as the sequence (P43681 29-627 limits assumed) above, with T124I counted along it
Chain of (α4T152I)3(β2)2 nAChR (P17787 26-502 partner): as the sequence (P17787 26-502) above
Chain of (α4H94N)3(β2)2 nAChR (P43681 29-627 H94N limits assumed): as the sequence (P43681 29-627 limits assumed) above, with H66N counted along it
Chain of (α4H94N)3(β2)2 nAChR (P17787 26-502 partner): as the sequence (P17787 26-502) above
T2 sequence (P32297 32-505): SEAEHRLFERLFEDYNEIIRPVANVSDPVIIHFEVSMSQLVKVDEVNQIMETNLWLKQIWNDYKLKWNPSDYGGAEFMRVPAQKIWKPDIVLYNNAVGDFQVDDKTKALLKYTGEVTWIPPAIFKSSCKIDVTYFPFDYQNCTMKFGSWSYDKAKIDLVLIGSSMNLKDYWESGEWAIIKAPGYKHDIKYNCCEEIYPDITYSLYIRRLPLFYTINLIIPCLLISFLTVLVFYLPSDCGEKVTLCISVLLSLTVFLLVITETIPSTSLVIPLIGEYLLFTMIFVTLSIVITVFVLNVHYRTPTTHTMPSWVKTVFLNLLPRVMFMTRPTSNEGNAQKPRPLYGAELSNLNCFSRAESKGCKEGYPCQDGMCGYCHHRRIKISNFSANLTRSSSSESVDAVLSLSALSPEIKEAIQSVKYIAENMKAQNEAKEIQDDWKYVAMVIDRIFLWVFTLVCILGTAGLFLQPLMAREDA
T2 sequence (P30926 22-498): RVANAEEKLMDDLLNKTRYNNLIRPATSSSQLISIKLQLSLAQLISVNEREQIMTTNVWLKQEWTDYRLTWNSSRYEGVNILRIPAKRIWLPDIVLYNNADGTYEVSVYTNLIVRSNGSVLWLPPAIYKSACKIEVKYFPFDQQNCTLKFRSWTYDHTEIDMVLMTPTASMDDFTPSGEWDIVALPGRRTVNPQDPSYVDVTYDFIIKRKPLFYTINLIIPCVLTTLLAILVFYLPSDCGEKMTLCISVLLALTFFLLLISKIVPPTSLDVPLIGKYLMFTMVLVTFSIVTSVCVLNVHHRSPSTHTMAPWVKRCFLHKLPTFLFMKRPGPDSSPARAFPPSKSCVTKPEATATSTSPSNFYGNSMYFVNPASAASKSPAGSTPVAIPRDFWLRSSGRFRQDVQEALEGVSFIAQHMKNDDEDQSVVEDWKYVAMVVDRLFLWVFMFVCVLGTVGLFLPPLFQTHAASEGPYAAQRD
T3 sequence (P32297 32-505): as the sequence (P32297 32-505) above
T3 sequence (P17787 26-502): as the sequence (P17787 26-502) above

SMILES	R, potentiation ratio (PR) [1]	increase in ACh efficacy (Imax) by dFBr ([2]; ACh concentration-response curve)	dFBr maximal potentiation [2]	EC50 ([2]; read-out: dFBr potentiation EC50)	potentiation of ACh responses [3]	potentiation of ACh responses [4]	R, potentiation ratio (PR) [5]	compulsive-like behavior [6]	ACh Imax in the presence of 1 µM LY2087101 ([7]; ACh concentration-response curve, normalized to 1 mM ACh alone)	EC50 ([7]; co-applied with 10 µM ACh, HS WT, read-out: LY2087101 potentiation EC50)
C=CC(C)(C)c1[nH]c2cc(Br)ccc2c1CCNC [dFBr]	2.6 ± 0.4^a	~ 4 fold	300%	~1000 nM	did not potentiate	did not potentiate	5.8 ± 0.5^a	attenuate compulsive-like behavior	–	–
Cc1nc(Nc2ccc(F)cc2)sc1C(=O)c1ccsc1 [LY2087101, [2-[(4-Fluorophenyl)amino]-4-methyl-5-thiazolyl]-3-thienylmethanone]	–	–	–	–	–	–	–	–	189 ± 2% and ~190%	1900 ± 40 nM
